Measurements: patent US11655297B2, “ILDR2 antagonists and combinations thereof” (Bayer Aktiengesellschaft, priority 2017, dated 2023)

What was measured:
B16-F10 OVA tumor model = test: B16-F10 OVA model, combination with Docetaxel; conditions: for tumor size of the treatment group vs. Control (T/C): B16-F10 OVA, BAY 1905254 10 mg/kg i.p. q3d×3, Docetaxel once 20 mg/kg i.v.; for Mean tumor size: BAY 1905254 10 mg/kg i.p. q3d×3 starting day 8, Docetaxel once 20 mg/kg i.v. on day 8
Description: Eight weeks old female C57B1/6N Cr1 BR mice (body weight 18-20 g) from Charles River Deutschland, Sulzfeld were used for the B16-F10 OVA tumor model. The model is a derivative of the B16F10 cell line expressing the allo-antigen ovalbumin which can be recognized by antigen-specific T cells. The experiment was initiated after an acclimatization period of 5 days. Animals were kept in a 12-hour light/dark cycle. Food and water was available ad libitum. Housing temperature was maintained at 21° C. Mice (n=12 per group) were s.c. inoculated with 1×10^4 B16F10 OVA tumor cells into the left flank and assigned to experimental groups. At treatment initiation, animals were marked and each cage was labeled with the cage number, study number and the number of animals per cage.
Agents were dosed i.p. at 10 mg/kg q3d×3, starting day 8.

[1] = system: IL-2 secretion of CD4 T cells co-cultured with M-CSF mature monocytes; test: Mixed lymphocyte reaction (MLR), antibody-evoked IL-2 secretion by Elisa; format: cell-based
Description: To determine the effect of these antibodies on ILDR2 function an immunomodulation assay was carried out, namely a mixed lymphocyte reaction assay. The mixed lymphocyte reaction (MLR) is a test in which populations of lymphocytes are mixed together, and the resulting reactions are measured. Technically, it is an ex-vivo cellular immune assay that occurs between two allogeneic lymphocyte populations. In a one-way MLR, only one lymphocyte population can respond or proliferate. In a two-way MLR, both populations can proliferate. MLR's are performed to assess how T cells react to external stimuli, e.g., exposure to immune checkpoint inhibitors, like anti PD-1 antibodies (Wang et al 2014) and anti-PD-L1 antibodies. In the present context, antibody-evoked IL-2 secretion was measured with this assay.
In the present case, CD4 T cells from one donor were co-cultured with M-CSF mature monocytes from another donor in the presence of various ILDR2 antibodies, a function-blocking PD-L1 antibody or an isotype control for 5 days. […] Results are shown in FIG. 9B and the following table 3.

B16F10 tumor model = test: B16-F10 preventive treatment, syngeneic tumor model; format: in vivo, mouse; conditions: for Mean tumor size: 10 mg/kg i.p. q3d×6 from tumor inoculation
Description: (§1) The following syngeneic tumor models were subcutaneously used in in vivo experiments: B16-F10 cells represent a mouse melanoma cell line derived from the skin of C57BL/6J mice. CT26 is an N-nitroso-N-methylurethane-(NNMU) induced, undifferentiated colon carcinoma cell line. It is a fibroblast cell type and derives from BALB/c mice. 3C9-D11-H11 cells are hybridoma B lymphocytes generated by fusion of spleen cells with Sp2/0-Ag14 myeloma cells. The spleen cells derive from BALB/c mice that were immunized with purified porcine parvovirus (PPV).

B16-F10 tumor model = test: B16-F10 therapeutic treatment, combination with aPD-L1; format: in vivo, mouse
Description: as §1

CT26 tumor model = test: CT26 therapeutic, combination with aPD-L1; format: in vivo, mouse; conditions: aPD-L1 10 mg/kg
Description: as §1

3C9-D11-H11 tumor model = test: 3C9-D11-H11 therapeutic, combination with aPD-L1; format: in vivo, mouse
Description: as §1

B16F10 OVA tumor model = test: B16F10 OVA model, combination with OVA vaccine and CpG oligo; format: in vivo, mouse; conditions: for Mean tumor size: BAY 1905254 10 mg/kg i.p. q3d×3 starting day 8, 50 μg OVA + 10 μg CPG s.c. on day 9
Description: 50 μg OVA (in 50 μl)+10 μg CPG (in 10 μl)+140 μl PBS=200 μl/mouse was applied subcutaneously to the left flank adjacent to the tumor, on day 9. The CpG oligonucleotide was ODN 1826 (5′-[…]-3′; bases are phosphorothioate/nuclease resistant) that is specific for mouse TLR9 was used (Invivogen MA-1826-5).

CT26 C4.4a tumor model = test: CT26 C4.4a model, combination with C4.4A ADC; format: in vivo, mouse; conditions: for Mean tumor size: BAY 1905254 10 mg/kg i.p. q3d×5, C4.4A ADC 10 mg/kg i.v. q4d×3, starting day 6
Description: This model is a derivative of the parental CT26 model expressing murine C4.4a on the surface of the tumor cells.
C4.4A ADC (antibody-drug conjugate BAY1129980), which is composed of an antibody against a structural homolog of the urokinase-type plasminogen activator receptor (uPAR) and tumor-associated antigen, C4.4a, and conjugated with a cytotoxic agent, was dosed 10 mg/kg i.v. q4d×3, starting day 6.

[2] = system: B16F10 syngeneic mouse model; test: Tumor shrinking activity in B16F10 syngeneic mouse model (FIG. 9A); format: in vivo
Description: Tumor shrinking activity is measured as decrease of tumor volume, relative to an isotype control.
To determine the anti-tumor efficacy, such as for example, the tumor shrinking effect of the respective binders, two syngeneic mouse models (B16F10, CT26) were used as discussed above.

[3] = system: CT26 syngeneic mouse model; test: Tumor shrinking activity in CT26 syngeneic mouse model (FIG. 9C)
Description: FIG. 9C: Tumor shrinking activity of selected anti ILDR2 antibodies according to the present invention in a CT26 syngeneic mouse model. Tumor shrinking activity is measured as decrease of tumor volume, relative to an Isotype control.

Molecule: CC(=O)O[C@@]12CO[C@@H]1C[C@H](O)[C@@]1(C)C(=O)[C@H](O)C3=C(C)[C@@H](OC(=O)[C@H](O)[C@@H](NC(=O)OC(C)(C)C)c4ccccc4)C[C@@](O)([C@@H](OC(=O)c4ccccc4)[C@H]21)C3(C)C [Docetaxel, reference compound]
- tumor size of the treatment group vs. Control (T/C) (B16-F10 OVA tumor model): 0.74
- Mean tumor size (B16-F10 OVA tumor model; day 8 post inoculation): 86.56 mm3
- Mean tumor size (B16-F10 OVA tumor model; day 11 post inoculation): 100.78 mm3
- Mean tumor size (B16-F10 OVA tumor model; day 14 post inoculation): 165.78 mm3
- Mean tumor size (B16-F10 OVA tumor model; day 16 post inoculation): 305.33 mm3

Molecule: BAY1905254: anti ILDR2 antibody, heavy chain SEQ ID NO:42, light chain SEQ ID NO:43
- IL2 concentration (% over isotype control) ([1]; MLR, 5 days, supernatant Elisa): 91 +/− 11%
- IL-2 secretion / cytokine induction in MLR (in words) ([1]; vs isotype control or anti PD-L1 antibody): do not mediate IL-2 induction
- tumor size of the treatment group vs. isotype control (T/C) (B16F10 tumor model; B16-F10 preventive, 10 mg/kg i.p. q3d×6): 0.63
- tumor growth vs. isotype control (in words) (B16F10 tumor model; B16F10, 10 mg/kg i.p., start of treatment d0, 2 way ANOVA): significantly delayed
- Mean tumor size (B16F10 tumor model; day 3 post inoculation): 34.5 mm3
- Mean tumor size (B16F10 tumor model; day 6 post inoculation): 77.3 mm3
- Mean tumor size (B16F10 tumor model; day 8 post inoculation): 90.1 mm3
- Mean tumor size (B16F10 tumor model; day 11 post inoculation): 286.8 mm3
- Mean tumor size (B16F10 tumor model; day 13 post inoculation): 389.2 mm3
- Mean tumor size (B16F10 tumor model; day 15 post inoculation): 1059.9 mm3
- Mean tumor size (B16F10 tumor model; day 17 post inoculation): 1204 mm3
- tumor growth vs. isotype control (in words) (B16-F10 tumor model; B16-F10 therapeutic, 10 mg/kg q3d i.p., 2 way ANOVA): No monotherapy efficacy
- tumor size of the treatment group vs. isotype control (T/C) (B16-F10 tumor model; B16-F10 therapeutic, 10 mg/kg i.p. q3d×5 starting d3): 1.08
- Mean tumor size (B16-F10 tumor model; day 6 post inoculation, 10 mg/kg i.p. q3d×5 starting d3): 76.07 mm3
- Mean tumor size (B16-F10 tumor model; day 8 post inoculation, 10 mg/kg i.p. q3d×5 starting d3): 80.52 mm3
- Mean tumor size (B16-F10 tumor model; day 10 post inoculation, 10 mg/kg i.p. q3d×5 starting d3): 158.01 mm3
- Mean tumor size (B16-F10 tumor model; day 13 post inoculation, 10 mg/kg i.p. q3d×5 starting d3): 479.92 mm3
- Mean tumor size (B16-F10 tumor model; day 15 post inoculation, 10 mg/kg i.p. q3d×5 starting d3): 986.99 mm3
- tumor size of the treatment group vs. isotype control (T/C) (CT26 tumor model; CT26, BAY1905254 3 mg/kg i.p. q3d×3 starting d7): 0.95
- tumor growth vs. isotype control (in words) (CT26 tumor model; CT26, BAY1905254 3 mg/kg q3d i.p. from d7, 2 way ANOVA): no delay of tumor growth
- Mean tumor size (CT26 tumor model; day 7 post inoculation, BAY1905254 3 mg/kg i.p. q3d×3 starting d7): 136.38 mm3
- Mean tumor size (CT26 tumor model; day 10 post inoculation, BAY1905254 3 mg/kg i.p. q3d×3 starting d7): 227.41 mm3
- Mean tumor size (CT26 tumor model; day 13 post inoculation, BAY1905254 3 mg/kg i.p. q3d×3 starting d7): 367.22 mm3
- Mean tumor size (CT26 tumor model; day 15 post inoculation, BAY1905254 3 mg/kg i.p. q3d×3 starting d7): 576.28 mm3
- tumor size of the treatment group vs. isotype control (T/C) (3C9-D11-H11 tumor model; 3C9-D11-H11, 10 mg/kg i.p. q3d×5 starting d8): 0.87
- tumor growth vs. isotype control (in words) (3C9-D11-H11 tumor model; 3C9-D11-H11, 10 mg/kg q3d i.p. from d8, 2 way ANOVA): not the case
- Mean tumor size (3C9-D11-H11 tumor model; day 7 post inoculation, 10 mg/kg i.p. q3d×5 starting d8): 63.28 mm3
- Mean tumor size (3C9-D11-H11 tumor model; day 10 post inoculation, 10 mg/kg i.p. q3d×5 starting d8): 67.18 mm3
- Mean tumor size (3C9-D11-H11 tumor model; day 14 post inoculation, 10 mg/kg i.p. q3d×5 starting d8): 198.87 mm3
- Mean tumor size (3C9-D11-H11 tumor model; day 16 post inoculation, 10 mg/kg i.p. q3d×5 starting d8): 314.06 mm3
- Mean tumor size (3C9-D11-H11 tumor model; day 18 post inoculation, 10 mg/kg i.p. q3d×5 starting d8): 574.54 mm3
- Mean tumor size (3C9-D11-H11 tumor model; day 21 post inoculation, 10 mg/kg i.p. q3d×5 starting d8): 1377.9 mm3
- tumor size of the treatment group vs. Control (T/C) (B16F10 OVA tumor model; B16F10 OVA, BAY 1905254 10 mg/kg i.p. q3d×3, OVA + CPG s.c. once): 0.66
- tumor growth vs. isotype control (in words) (B16F10 OVA tumor model; B16F10 OVA, BAY1905254 10 mg/kg q3d i.p., OVA and CPG, 2 way ANOVA): moderate delay of tumor growth
- Mean tumor size (B16F10 OVA tumor model; day 9 post inoculation): 66.09 mm3
- Mean tumor size (B16F10 OVA tumor model; day 11 post inoculation): 137.52 mm3
- Mean tumor size (B16F10 OVA tumor model; day 14 post inoculation): 314.75 mm3
- Mean tumor size (B16F10 OVA tumor model; day 16 post inoculation): 483.38 mm3
- Mean tumor size (B16F10 OVA tumor model; day 18 post inoculation): 711.93 mm3
- tumor size of the treatment group vs. Control (T/C) (CT26 C4.4a tumor model; CT26 C4.4a, BAY 1905254 10 mg/kg i.p. q3d×5, C4.4A ADC 10 mg/kg i.v. q4d×3): 1.13
- tumor growth vs. isotype control (in words) (CT26 C4.4a tumor model; FIG. 8, BAY1905254 10 mg/kg i.p., C4.4A ADC 10 mg/kg i.v., from d6, 2 way ANOVA): does not lead to a delay in tumor growth
- Mean tumor size (CT26 C4.4a tumor model; day 6 post inoculation): 56.89 mm3
- Mean tumor size (CT26 C4.4a tumor model; day 10 post inoculation): 141.28 mm3
- Mean tumor size (CT26 C4.4a tumor model; day 12 post inoculation): 220.99 mm3
- Mean tumor size (CT26 C4.4a tumor model; day 14 post inoculation): 260.95 mm3
- Mean tumor size (CT26 C4.4a tumor model; day 17 post inoculation): 566.58 mm3
- Mean tumor size (CT26 C4.4a tumor model; day 19 post inoculation): 706.01 mm3
- tumor shrinkage measured against an isotype control (in words) [2]: do
- anti-tumor activity in an in vivo tumor model compared with anti PD-L1 antibody (in words) [3]: comparable to that of an anti PD-L1 antibody
- tumor size of the treatment group vs. Control (T/C) (B16-F10 OVA tumor model): 0.86
- tumor growth vs. isotype control (in words) (B16-F10 OVA tumor model; B16F10 OVA, BAY1905254 10 mg/kg q3d i.p., Docetaxel 20 mg/kg i.v. once, 2 way ANOVA): moderate delay of tumor growth
- Mean tumor size (B16-F10 OVA tumor model; day 8 post inoculation): 86.26 mm3
- Mean tumor size (B16-F10 OVA tumor model; day 11 post inoculation): 97.06 mm3
- Mean tumor size (B16-F10 OVA tumor model; day 14 post inoculation): 207.75 mm3
- Mean tumor size (B16-F10 OVA tumor model; day 16 post inoculation): 382.66 mm3
